# In US8859590B2, “Inhibitors of BACE1 and methods for treating Alzheimer's disease” (Purdue Research Foundation, priority 2008, dated 2014):
# Target: BACE1 (Memapsin 2) (Homo sapiens, UniProt P56817)
# Assay: Inhibition of BACE1 (memapsin 2) catalytic activity, fluorogenic substrate FS-2
# Assay type: biochemical
# Details: inhibition constants of BACE1; pH 4, 37° C.
# Protocol: Inhibition of BACE1 (Memapsin 2). Potency of compounds are determined by measurement of their inhibition of memapsin 2 catalytic activity toward a fluorescent substrate. […] Briefly, assays are performed at pH 4, 37° C., by pre-incubation of memapsin 2 enzyme with compound for 20 minutes. Activity measure is initiated by addition of a fluorogenic substrate FS-2 (Bachem Americas, Torrance, Calif.). Fluorescent signal increase over time is measured as a rate of hydrolysis of the peptide substrate. […]
# Chain of BACE1 (Memapsin 2) (P56817 46-501): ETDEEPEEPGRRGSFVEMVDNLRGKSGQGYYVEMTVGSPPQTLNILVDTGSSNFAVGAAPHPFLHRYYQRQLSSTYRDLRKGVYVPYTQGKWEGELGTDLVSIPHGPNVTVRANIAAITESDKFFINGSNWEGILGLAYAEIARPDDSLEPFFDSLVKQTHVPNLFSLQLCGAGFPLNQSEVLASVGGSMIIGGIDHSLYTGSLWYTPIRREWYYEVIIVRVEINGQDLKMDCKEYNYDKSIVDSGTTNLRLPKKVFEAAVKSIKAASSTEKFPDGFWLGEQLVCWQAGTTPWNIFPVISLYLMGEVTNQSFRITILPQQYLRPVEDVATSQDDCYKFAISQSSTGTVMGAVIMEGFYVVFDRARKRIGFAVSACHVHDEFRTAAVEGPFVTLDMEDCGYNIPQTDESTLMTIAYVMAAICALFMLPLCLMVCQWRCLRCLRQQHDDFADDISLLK
row,Compound,Ki
1,COc1cccc([C@H](NC[C@H](Cc2ccccc2)NC(=O)c2cccc(C(=O)N(C)Cc3nc(C)cs3)c2)[C@H](O)Cc2ccccc2)c1 [Example 0449],> 1 mM
2,C[C@@H](NC(=O)c1cc(C(=O)N[C@H](CN[C@H](CO)Cc2ccccc2)Cc2ccccc2)cc(N(C)S(C)(=O)=O)c1)c1ccccc1 [Example 0397],< 1 mM
3,C[C@@H](NC(=O)c1cc(C(=O)N[C@H](CN[C@H]2c3ccccc3C[C@H]2O)Cc2ccccc2)cc(N(C)S(C)(=O)=O)c1)c1ccccc1 [Example 0427],< 1 mM
4,COc1cccc([C@@H](NC[C@H](Cc2ccccc2)NC(=O)c2cccc(C(=O)N(C)Cc3nc(C)cs3)c2)[C@H](O)Cc2ccccc2)c1 [Example 0439],> 1 mM
5,COC(=O)[C@H](NC[C@H](Cc1ccccc1)NC(=O)c1cc(C(=O)N[C@H](C)c2ccccc2)cc(N(C)S(C)(=O)=O)c1)[C@@H](C)O [Example 0417],< 1 mM
6,Cc1csc(CN(C)C(=O)c2cccc(C(=O)N[C@H](CN[C@H](C(=O)NCC(C)C)[C@H](C)O)Cc3ccccc3)c2)n1 [Example 0637],< 1 mM
7,C[C@@H](NC(=O)c1cc(C(=O)N[C@H](CN[C@@H]2c3ccccc3C[C@@H]2O)Cc2ccccc2)cc(N(C)S(C)(=O)=O)c1)c1ccccc1 [Example 0407],< 1 mM
8,COC(=O)[C@H](NC[C@H](Cc1ccccc1)NC(=O)c1cccc(C(=O)N(C)Cc2nc(C)cs2)c1)[C@@H](C)O [Example 0667],> 1 mM

# The next lines start with the values.
row,Ki,Compound
1,< 1 mM,Cc1csc(CN(C)C(=O)c2cccc(C(=O)N[C@H](CN[C@@H]3c4ccccc4C[C@@H]3O)Cc3ccccc3)c2)n1 [Example 0647]
2,< 0.0001 mM,CC(C)CNC[C@@H](NC[C@H](Cc1ccccc1)NC(=O)c1cc(C(=O)N[C@H](C)c2ccccc2)cc(N(C)S(C)(=O)=O)c1)[C@@H](O)CC(C)C [Example 1479]
3,< 0.0001 mM,CC(C)CNC[C@@H](NC[C@H](Cc1ccccc1)NC(=O)c1cc(C(=O)N[C@H](C)c2ccccc2)cc(N(C)S(C)(=O)=O)c1)[C@H](C)O [Example 1439]
